Measured values reported in article PMC5974752, “Bax/Tubulin/Epithelial-Mesenchymal Pathways Determine the Efficacy of Silybin Analog HM015k in Colorectal Cancer Cell Growth and Metastasis” (Frontiers in Pharmacology, 2018).

Assays:
[1] = system: HCT116 cell; assay: Cell morphology (EMT reversal); type: cell-based, human; settings: HCT116 after incubation with 15k
Protocol: The aberrant, over-activation of embryonic signaling pathways, including Wnt/β-catenin/epithelial-mesenchymal transition (EMT), is involved in the development, progression, metastasis, and resistance of CRC (Du and Shim, [2016]). […] To test this hypothesis, the morphology of HCT116 cell was observed following incubation with 15k. […] We then determined the efficacy of compound 15k on the expression of (1) β-catenin; (2) E-cadherin, and (3) N-cadherin in CRC cells.

[2] = system: CHO; assay: MTT assay, normal cell line; type: cell-based, Chinese hamster; settings: Cricetulus griseus, 72 h incubation, mean ± SD of three experiments
Protocol: The 3-(4,5-dimethylthiazol-2-yl)-2,5-diphenyltetrazolium bromide (MTT) assay was used to determine the sensitivity of the different CRC cells to the novel silybin derivatives (Hussein et al., [2017]; Manivannan et al., [2017]). The cells were seeded at a density of 4,000–5,000 cells/well in 96 well plates and incubated with serial dilutions of the compounds (0, 0.1, 0.3, 1, 3, 10, 30, and 100 μM). The MTT dye (4 mg/ml) was added after 72 h of incubation and incubated with the cells for an additional 4 h at 37°C. Following incubation, the media was discarded and the formazan crystals were dissolved by adding 100 μL of DMSO to each well. A DTX 880 multimode detector (Beckman Coulter Life, Indianapolis IN, USA) was used to determine the absorbance readings at a wavelength of 570 nm. The IC50 values were determined based on 3 separate experiments, with each experiment done in triplicate. The selectivity of the compounds was determined by comparing their cytotoxicity for CRC to normal epithelial cell lines (CHO, and CRL1459).

[3] = system: HCT116 cells; assay: Hoechst staining of nuclear condensation; type: cell-based, human; settings: 2 or 4 μM, overnight, vs vehicle
Protocol: Nuclear condensation was detected using Hoechst 33258 DNA dye. HCT116 cells were seeded at 1 × 10^5 cells/well in 6-well plates and incubated overnight at 37°C. The following day, cells were exposed to 15k or 15j (0, 2, and 4 μM) and further incubated overnight at 37°C. The cells were fixed and stained with Hoechst 33258 for at least 30 min. An EVOS digital microscope was used to detect the stained nucleus fluorescence at wavelengths of 460–490 nm.

[4] = system: LOVO cells; assay: Transwell migration assay; type: cell-based, human; settings: 2 and 4 μM, 24 h, vs vehicle
Protocol: The effect of compound 15k on the invasiveness of LOVO was tested using 24 trans-well inserts with an […]. The addition of the insert to the well forms two chambers (upper and lower), where the upper chamber was used to grow the cells on the porous membrane. The lower chamber was filled with 600 μl of cell-free DMEM medium. A 200 μl of cell suspension was added to each insert and allowed to attach for 1 h. The test compound was added in different concentrations and incubated with the cells for 24 h. […] Finally, the remaining migrated cells were fixed by methanol and dyed with 0.1% crystal violet dye and observed with an EVOS microscope. The number of migrated cells was counted and compared between the treated and control cells.

[5] = system: HCT116 cells; assay: CellTiter-Glo luminescent assay (ATP content); type: cell-based; settings: Homo sapiens, HCT-116, data not shown, read-out: IC50, ATP depletion
Protocol: Subsequently, we conducted experiments to determine if compound 15k produced a time-dependent effect on cell death. […] The HCT116 cells had intense fluorescence over time compared to the cells incubated with vehicle, with a significant difference in the number of dead cells after 24 h of incubation with 2 μM of 15k. […] The cytotoxicity of 15k and 15j in HCT116 cells were further determined using a more homogeneous CellTiter-Glo® luminescent cell based assay that measures the ATP content in the metabolically active cells.

[6] = system: α-tubulin; assay: Immunofluorescence staining in HCT116 cells; type: cell-based, human; settings: 2 or 4 μM, overnight, p < 0.001 vs control
Protocol: (§1) HCT116 cells were used to ascertain the action of compound 15k on α-tubulin, E-cadherin and β-catenin. The cells were seeded on to culture glass covers inserted in 6 well plates. The compound was added at 0, 2, and 4μM and incubated with the cells overnight at 37°C. Paraformaldehyde (4%) was used for cell fixation, followed by permiabilization with 0.3% triton 100× in PBS for 25 min. The cells were blocked with 3% BSA in PBS for 30 min. The α-tubulin, E-cadherin, or β-catenin rabbit antibodies in the correct dilution were added, followed by fluorescent anti-rabbit secondary antibody in the same manner. The nuclei were stained with the nuclear dye, DAPI, for 15 min. The EVOS cell imaging system was used to detect the fluorescence from each slide.

[7] = system: E-cadherin; assay: Immunofluorescence staining in HCT116 cells; type: cell-based, human; settings: 2 μM p < 0.05, 4 μM p < 0.001, 24 h
Protocol: as §1

[8] = system: β-catenin; assay: Immunofluorescence staining in HCT116 cells; type: cell-based, human; settings: 2 and 4 μM, p < 0.01 vs vehicle
Protocol: as §1

[9] = system: LOVO cells; assay: Wound healing assay; type: cell-based, human; settings: 2 and 4 μM, 24 h and 48 h, vs vehicle
Protocol: In brief, the metastatic CRC cells (LOVO) were seeded in 6 well plates and allowed to grow as a monolayer until they reached 100% confluence. Upon confluence, 200 μl sterile tips were used to create a wound by gentle scratching of the complete cell monolayer. Sterile PBS was used to wash the cells several times to remove any floating cells. Different concentrations of the test compound were prepared in the culture media and added immediately after wound formation. The closure of the wound was observed by taking pictures at different time points by an EVOS microscope. Finally, the area of the wounds at different time points was calculated using Image J software (NIH, Bethesda, Maryland, USA).

O=C(/C=C/c1cccc(OCc2ccccc2)c1)c1ccc(O)cc1 [Compound 15k]
cell morphology [1]: significantly changed the morphology of the cells from mesenchymal to a more epithelial-like appearance
IC50 [2]: 8.1 ± 1.2 µM
nuclear condensation / fragmentation [3]: significant increase in blue fluorescence, as well as highly condensed, fragmented nuclei chromatin
number of cells migrated through transwell [4]: significantly decreased the number of LOVO cells that migrated
IC50 [5]: 0.76 µM
α-tubulin green fluorescence [6]: significant reduction
E-cadherin expression (immunostaining) [7]: significantly increased
level of β-catenin available for nuclear translocation (immunostaining) [8]: significant decrease
cell migration, wound closure [9]: migrated significantly slower
